Read-outs that look alike come from different tables or passages of the source.
What was measured:
JAK1 = JAK1 (Homo sapiens (Human), UniProt P23458); assay type: biochemical
Procedure: (§1) Assay 1: Biochemical JAK and Off-Target Kinase Assays
(§2) A panel of four LanthaScreen JAK biochemical assays (JAK1, 2, 3 and Tyk2) were carried in a common kinase reaction buffer (50 mM HEPES, pH 7.5, 0.01% Brij-35, 10 mM MgCl2, and 1 mM EGTA). Recombinant GST-tagged JAK enzymes and a GFP-tagged STAT1 peptide substrate were obtained from Life Technologies.
(§3) Serially diluted compounds were pre-incubated with each of the four JAK enzymes and the substrate in white 384-well microplates (Corning) at ambient temperature for 1 h. ATP was subsequently added to initiate the kinase reactions in 10 μL total volume, with 1% DMSO. […] Kinase reactions were allowed to proceed for 1 hour at ambient temperature before a 10 μL preparation of EDTA (10 mM final concentration) and Tb-anti-pSTAT1 (pTyr701) antibody (Life Technologies, 2 nM final concentration) in TR-FRET dilution buffer (Life Technologies) was added. The plates were allowed to incubate at ambient temperature for 1 h before being read on the EnVision reader (Perkin Elmer).
(§4) Results were expressed as pIC50 (negative logarithm of IC50) and subsequently converted to pKi (negative logarithm of dissociation constant, Ki) using the Cheng-Prusoff equation.

[1] = tested on: IL-13 induced STAT6 phosphorylation in BEAS-2B human lung epithelial cells
[2] = tested on: IL-4 induced STAT6 phosphorylation in THP-1 human monocytic cells
TYK2 = TYK2 (Homo sapiens (Human), UniProt P29597); assay type: biochemical
Procedure: as §1, §2, §3, §4

JAK2 = JAK2 (Homo sapiens (Human), UniProt O60674); assay type: biochemical
Procedure: as §1, §2, §3, §4

[3] = 5% to 90% relative humidity, room temperature; listed as Crystalline 3-(1R,3s,5S)-3-((7-((5-methyl-H-pyrazol-3-yl)amino)-1,6-naphthyridi))
Procedure: A weighed sample was used and the humidity was lowest possible value (close to 0% RH) at the start of the analysis. The DMS analysis consisted of an initial drying step (0% RH) for 120 minutes, followed by two cycles of sorption and desorption with a scan rate of 5% RH/step over the humidity range of 5% RH to 90% RH. The DMS run was performed isothermally at 25° C.

[4] = tested on: oxazolone-induced colitis; test: Mouse model of oxazolone-induced colitis; assay type: in vivo, BALB/C mice; settings: PO, 1, 3, and/or 10 mg/kg BID (doses up to 10 mg/kg BID)
Procedure: Assay 7: Mouse Model of Oxazalone-Induced Colitis
Oxazolone-induced colitis is an experimental model that has a histological resemblance to human ulcerative colitis (Heller et al. Immunology, 2002, 17, 629-638). Adult BALB/C mice from Harlan were used in the assay. On day 1, animals were lightly anesthetized with isoflurane and the hairs between the shoulder were carefully removed before oxazolone (4%, 150 μL, 4:1 acetone:olive oil formulation) or vehicle solution was slowly applied for skin sensitization. Seven days after skin sensitization, the mice were fasted overnight, anesthetized with isoflurane inhalation, and a 1 mL syringe equipped with a 3.5-F catheter, filled with oxazolone solution, was inserted carefully about 4 cm into the colon of the mouse. Following insertion, 50 μL of the oxazolone solution (1%, 1:1 ethanol:water formulation) was injected very slowly (over 30 sec using an injection pump) into the colon. The catheter was removed and the mice were held vertically (head down) for 2 min to ensure that the entire oxazolone solution remained inside the colon. Drug treatment (PO, BID or TID) or vehicle was initiated a day prior to the oxazolone intrarectal (IR) challenge. Two-day post oxazolone intrarectal challenge, the Disease Activity Index (DAI) was assessed by treatment-blinded experimenters for each mouse according to the criteria score: stool consistency score (0, normal; 2, loose; 4, diarrhea), gross bleeding score (0, absence; 2, blood tinged; 4, presence), and weight loss score (0, none; 1, 1%-5%; 2, 5%-10^%; 3, 10%-20%; 4, more than 20%); DAI=average of (stool consistency score+gross bleeding score+weight loss score).
Selected compounds of the invention were tested in the assay. Efficacy in the model is evidenced by a decrease in DAI score as compared with the score from vehicle treated animals.

[5] = tested on: splenic NK, B and T cells; test: Immunosuppression effects in mouse splenic natural killer (NK) cells; assay type: in vivo, Balb/C mice; settings: mouse, PO BID three days
Procedure: Assay 8: Immunosuppression Effects in Mouse Splenic Natural Killer (NK) Cells Depletion of mouse splenic cells is an experimental model of immunosuppression (Kudlacz et al., Am. J. of Transplantation, 2004, 4, 51-57). […] Adult male Balb/C mice (12-14 weeks of age) from Harlan were used for the study. […] Spleens were harvested 1 or 2 h post last dose and crushed immediately for cell subtype staining. Prior to fixation, fluorophore-labelled antibodies for CD19 (FITC; B cells), CD3e (PE; pan T cells) and DX5 (APC; NK cells) were incubated with splenocyte samples from each animal to allow for simultaneous, multiple subtype % analysis on the flow cytometer. The number of total spleen cells for each animal was measured by Scepter™ 2.0 Handheld Automated Cell Counter. The absolute number of lymphocyte subtype population (e.g., splenic B, T and NK cells) was calculated from the percentage of each subtype times total spleen cells for each animal. A one way ANOVA, with Dunnett's post hoc test, was used to compare the splenic lymphocytes number of the vehicle and test compound groups. The a level was set at p<0.05. Data were presented as the mean±SEM for each group.

[6] = Determination of absorption in cannulated rats; assay type: in vivo, Sprague Dawley rats; settings: rat, oral dose
Procedure: Drug levels were determined using an LC-MS-MS method. The resulting drug levels were used to compute the IV pharmacokinetic parameters: AUC IV and Dose IV. (2) Rats that have been cannulated in their portal vein (PV) and also in their jugular vein (JV) were dosed orally with test compound. Following oral dosing, plasma samples were typically collected from 0-6 hr from both the portal vein and the jugular vein. Drug levels were determined using an LC-MS-MS method. The resulting drug levels were used to compute the following pharmacokinetic parameters: AUC PO PV, AUC PO JV, and Dose PO. Using data derived from the above studies, the oral bioavailability F %, and the quantities Fa % and Fh % were calculated from the following formulas: F %=(AUC PO JV/AUC IV)*(Dose IV/Dose PO)*100 Fa %=(AUC PO PV/AUC IV)*(Dose IV/Dose PO)*100 Fh %=AUC PO JV/AUC PO PV where: AUC PO JV=Area under the curve following oral dose and plasma collected from the jugular vein AUC PO PV=Area under the curve following oral dose and plasma collected from the portal vein AUC IV=Area under the curve following an intravenous dose Dose IV=Intravenous Dose in mg/kg Dose PO=Oral Dose in mg/kg

[7] = THP-1 cells, IL-4 induced STAT6 phosphorylation
[8] = BEAS-2B cells, IL-13 induced STAT6 phosphorylation

Sequence of JAK1 (P23458 whole entry): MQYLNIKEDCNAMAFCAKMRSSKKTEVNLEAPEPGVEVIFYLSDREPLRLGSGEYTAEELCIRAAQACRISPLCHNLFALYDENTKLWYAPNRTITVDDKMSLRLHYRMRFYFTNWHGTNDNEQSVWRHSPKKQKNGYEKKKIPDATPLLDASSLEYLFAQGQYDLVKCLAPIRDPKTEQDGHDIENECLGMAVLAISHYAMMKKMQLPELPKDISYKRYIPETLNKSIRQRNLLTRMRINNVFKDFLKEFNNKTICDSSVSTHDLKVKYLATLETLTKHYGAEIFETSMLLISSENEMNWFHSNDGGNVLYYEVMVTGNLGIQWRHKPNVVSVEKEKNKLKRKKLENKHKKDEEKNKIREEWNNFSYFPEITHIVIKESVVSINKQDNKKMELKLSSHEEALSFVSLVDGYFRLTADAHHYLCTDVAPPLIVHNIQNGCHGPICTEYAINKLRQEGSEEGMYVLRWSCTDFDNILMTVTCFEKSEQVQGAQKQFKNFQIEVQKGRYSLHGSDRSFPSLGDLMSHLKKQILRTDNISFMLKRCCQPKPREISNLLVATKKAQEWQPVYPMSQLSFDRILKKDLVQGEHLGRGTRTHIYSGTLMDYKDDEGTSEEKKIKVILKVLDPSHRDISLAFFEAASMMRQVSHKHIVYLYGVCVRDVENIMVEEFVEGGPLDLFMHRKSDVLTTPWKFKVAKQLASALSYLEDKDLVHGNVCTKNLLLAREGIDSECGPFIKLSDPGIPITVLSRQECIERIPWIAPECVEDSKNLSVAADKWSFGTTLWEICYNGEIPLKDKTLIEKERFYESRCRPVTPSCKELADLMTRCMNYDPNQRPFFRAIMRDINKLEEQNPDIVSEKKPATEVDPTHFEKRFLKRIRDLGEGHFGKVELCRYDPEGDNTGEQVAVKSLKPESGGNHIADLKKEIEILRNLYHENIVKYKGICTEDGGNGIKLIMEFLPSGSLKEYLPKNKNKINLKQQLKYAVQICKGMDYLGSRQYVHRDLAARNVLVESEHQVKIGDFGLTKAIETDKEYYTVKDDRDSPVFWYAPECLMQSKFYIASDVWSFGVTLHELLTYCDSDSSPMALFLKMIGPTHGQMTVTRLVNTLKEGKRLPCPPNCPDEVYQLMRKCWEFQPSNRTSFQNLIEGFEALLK
Sequence of TYK2 (P29597 whole entry): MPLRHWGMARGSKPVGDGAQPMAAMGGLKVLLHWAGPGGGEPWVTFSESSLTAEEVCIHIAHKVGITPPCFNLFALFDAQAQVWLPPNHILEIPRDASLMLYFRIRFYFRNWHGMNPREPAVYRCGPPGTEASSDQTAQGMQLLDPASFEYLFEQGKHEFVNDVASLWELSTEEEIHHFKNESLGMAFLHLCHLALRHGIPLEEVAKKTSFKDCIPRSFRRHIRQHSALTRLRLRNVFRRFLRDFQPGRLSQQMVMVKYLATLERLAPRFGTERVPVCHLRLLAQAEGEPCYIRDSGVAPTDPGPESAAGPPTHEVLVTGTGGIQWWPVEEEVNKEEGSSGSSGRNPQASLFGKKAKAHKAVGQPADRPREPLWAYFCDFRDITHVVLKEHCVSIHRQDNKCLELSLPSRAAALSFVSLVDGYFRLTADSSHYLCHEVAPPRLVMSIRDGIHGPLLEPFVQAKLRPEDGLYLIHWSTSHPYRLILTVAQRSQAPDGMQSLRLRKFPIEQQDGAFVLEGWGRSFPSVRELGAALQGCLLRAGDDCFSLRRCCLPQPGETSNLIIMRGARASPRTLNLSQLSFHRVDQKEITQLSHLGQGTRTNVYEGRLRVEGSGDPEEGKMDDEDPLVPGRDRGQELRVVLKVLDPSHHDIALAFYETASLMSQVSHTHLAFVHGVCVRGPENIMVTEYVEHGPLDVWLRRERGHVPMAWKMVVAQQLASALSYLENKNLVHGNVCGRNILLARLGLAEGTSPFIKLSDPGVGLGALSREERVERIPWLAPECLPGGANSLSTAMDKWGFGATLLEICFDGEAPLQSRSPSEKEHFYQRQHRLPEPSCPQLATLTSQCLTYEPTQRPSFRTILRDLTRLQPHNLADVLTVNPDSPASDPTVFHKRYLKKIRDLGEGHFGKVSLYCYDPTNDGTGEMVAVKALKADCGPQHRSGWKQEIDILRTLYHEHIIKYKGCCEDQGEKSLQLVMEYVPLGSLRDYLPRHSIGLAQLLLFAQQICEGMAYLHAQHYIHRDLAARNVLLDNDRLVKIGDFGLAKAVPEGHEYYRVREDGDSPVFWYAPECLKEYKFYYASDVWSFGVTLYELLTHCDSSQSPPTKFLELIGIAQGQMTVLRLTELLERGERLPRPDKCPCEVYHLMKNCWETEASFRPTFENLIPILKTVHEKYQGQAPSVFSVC
Sequence of JAK2 (O60674 whole entry): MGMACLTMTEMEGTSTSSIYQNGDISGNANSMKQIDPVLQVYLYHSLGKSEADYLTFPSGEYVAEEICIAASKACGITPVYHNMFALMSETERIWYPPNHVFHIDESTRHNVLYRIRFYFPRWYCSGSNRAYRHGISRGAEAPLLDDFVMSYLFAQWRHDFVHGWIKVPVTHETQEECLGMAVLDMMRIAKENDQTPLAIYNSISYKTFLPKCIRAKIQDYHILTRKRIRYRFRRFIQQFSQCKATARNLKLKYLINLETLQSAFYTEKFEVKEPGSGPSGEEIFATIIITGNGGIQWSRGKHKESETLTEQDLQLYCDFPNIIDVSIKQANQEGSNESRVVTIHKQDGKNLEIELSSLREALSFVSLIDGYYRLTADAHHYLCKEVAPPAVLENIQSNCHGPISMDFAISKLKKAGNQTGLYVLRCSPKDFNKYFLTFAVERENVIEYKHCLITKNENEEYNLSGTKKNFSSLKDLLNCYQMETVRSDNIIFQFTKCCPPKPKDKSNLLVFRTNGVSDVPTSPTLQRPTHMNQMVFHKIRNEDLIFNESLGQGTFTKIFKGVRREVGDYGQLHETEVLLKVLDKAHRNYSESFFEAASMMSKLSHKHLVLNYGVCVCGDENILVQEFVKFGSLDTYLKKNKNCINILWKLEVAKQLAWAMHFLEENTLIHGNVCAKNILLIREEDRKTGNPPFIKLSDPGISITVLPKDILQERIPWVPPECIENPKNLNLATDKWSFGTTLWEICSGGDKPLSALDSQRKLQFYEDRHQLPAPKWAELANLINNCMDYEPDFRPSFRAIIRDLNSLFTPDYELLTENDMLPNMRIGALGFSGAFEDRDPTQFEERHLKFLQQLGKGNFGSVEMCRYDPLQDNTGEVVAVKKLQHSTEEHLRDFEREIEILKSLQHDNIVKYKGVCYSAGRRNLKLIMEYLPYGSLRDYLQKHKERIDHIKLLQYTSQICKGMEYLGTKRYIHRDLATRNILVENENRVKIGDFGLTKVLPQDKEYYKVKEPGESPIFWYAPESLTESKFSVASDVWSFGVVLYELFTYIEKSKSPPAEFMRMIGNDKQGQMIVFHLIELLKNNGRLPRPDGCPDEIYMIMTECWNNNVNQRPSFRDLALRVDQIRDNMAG

**Q.** Which “JAK 1 (pKi)” value (JAK1) does the source give for `Cc1cc(Nc2cc3ncccc3c(N[C@@H]3C[C@H]4CCC[C@@H](C3)N4C(=O)C3(C)CCCC3)n2)n[nH]1` [Example 2-23] here?
**A.** B (B represents a pKi value between 9 and 10 (Ki between 1 nM and 0.1 nM))

**Q.** For `CCC1(S(=O)(=O)N2[C@@H]3CCC[C@H]2C[C@H](Nc2nc(Nc4cc(C)[nH]n4)cc4ncccc24)C3)CC1` [Example 4-20], which “BEAS2B pIC50” value [1] is on record?
**A.** A (key: A represents a pEC50 value ≥7.5 (EC50≤32 nM); B represents a pEC50 value between 6.7 and 7.5 (EC50 between 200 nM and 32 nM); C represents a pEC50 value <6.7 (EC50>200 nM))

**Q.** Which results are given for `Cc1cc(Nc2cc3ncccc3c(N[C@@H]3C[C@H]4CC[C@@H](C3)N4CC(F)(F)F)n2)n[nH]1` [Example 1-14]?
**A.** THP-1 IL4 pIC50 [2, 7]: A (A represents a pEC50 value ≥7.5 (EC50≤32 nM)); BEAS2B pIC50 [1, 8]: A (A represents a pEC50 value ≥7.5 (EC50≤32 nM)); JAK 1 (pKi) (JAK1): B (B represents a pKi value between 9 and 10 (Ki between 1 nM and 0.1 nM)); Tyk 2 (pKi) (TYK2): B (B represents a pKi value between 9 and 10 (Ki between 1 nM and 0.1 nM)); JAK 2 (pKi) (JAK2): B (B represents a pKi value between 9 and 10 (Ki between 1 nM and 0.1 nM))

**Q.** For `CCS(=O)(=O)N1[C@@H]2CC[C@H]1C[C@H](Nc1nc(Nc3cc(C)[nH]n3)cc3nc(CN4CCOCC4)ccc13)C2` [Example 5-16], which “THP-1 IL4 pIC50” value [2, 7] is on record?
**A.** B (B represents a pEC50 value between 6.7 and 7.5 (EC50 between 200 nM and 32 nM))

**Q.** And the “BEAS2B pIC50” value [1, 8]?
**A.** B (B represents a pEC50 value between 6.7 and 7.5 (EC50 between 200 nM and 32 nM))

**Q.** With `Cc1cc(Nc2cc3ncccc3c(N[C@@H]3C[C@H]4CC[C@@H](C3)N4C(=O)c3cccnc3)n2)n[nH]1` [Example 2-14] as the compound, how does the “THP-1 IL4 pIC50” value [2] read?
**A.** C (key: A represents a pEC50 value ≥7.5 (EC50≤32 nM); B represents a pEC50 value between 6.7 and 7.5 (EC50 between 200 nM and 32 nM); C represents a pEC50 value <6.7 (EC50>200 nM))

**Q.** And the “JAK 1 (pKi)” value (JAK1)?
**A.** B (B represents a pKi value between 9 and 10 (Ki between 1 nM and 0.1 nM))

**Q.** For `Cc1cc(Nc2cc3ncccc3c(N[C@@H]3C[C@H]4CC[C@@H](C3)N4CC3(C#N)CC3)n2)n[nH]1` [Example 1-24], which “THP-1 IL4 pIC50” value [2, 7] is on record?
**A.** B (B represents a pEC50 value between 6.7 and 7.5 (EC50 between 200 nM and 32 nM))

**Q.** And the “BEAS2B pIC50” value [1, 8]?
**A.** A (A represents a pEC50 value ≥7.5 (EC50≤32 nM))

**Q.** Which “weight gain / weight change (moisture sorption)” value [3] does the source give for `Cc1cc(Nc2cc3ncccc3c(N[C@@H]3C[C@H]4CC[C@@H](C3)N4CCC#N)n2)n[nH]1` [Form I, 3-((1R,3s,5S)-3-((7-((5-methyl-1H-pyrazol-3-yl)amino)-1,6-naphthyridin-5-yl)amino)-8-azabicyclo[3.2.1]octan-8-yl)propanenitrile] here?
**A.** less than 0.15%

**Q.** Which “THP-1 IL4 pIC50” value [2, 7] does the source give for `CCC(=O)N1[C@@H]2CC[C@H]1C[C@H](Nc1nc(Nc3cc(C)[nH]n3)cc3ncccc13)C2` [Example 2-1] here?
**A.** B (B represents a pEC50 value between 6.7 and 7.5 (EC50 between 200 nM and 32 nM))

**Q.** What about the “BEAS2B pIC50” value [1, 8] of the same compound?
**A.** B (B represents a pEC50 value between 6.7 and 7.5 (EC50 between 200 nM and 32 nM))

**Q.** And the “DAI score as compared with vehicle treated animals” value [4]?
**A.** did not exhibit a statistically significant decrease

**Q.** Which “B and T cell populations (spleen)” value [5] does the source give for `C[C@@H]1CCN(C(=O)CC#N)C[C@@H]1N(C)c1ncnc2[nH]ccc12` [tofacitinib, reference compound] here?
**A.** No treatment effect

**Q.** Which “JAK 1 (pKi)” value (JAK1) does the source give for `Cc1cc(Nc2cc3ncccc3c(N[C@@H]3C[C@H]4CCC[C@@H](C3)N4CC(F)(F)F)n2)n[nH]1` [Example 1-45] here?
**A.** B (B represents a pKi value between 9 and 10 (Ki between 1 nM and 0.1 nM))

**Q.** And the “Tyk 2 (pKi)” value (TYK2)?
**A.** B (B represents a pKi value between 9 and 10 (Ki between 1 nM and 0.1 nM))

**Q.** What about the “JAK 2 (pKi)” value (JAK2) of the same compound?
**A.** B (B represents a pKi value between 9 and 10 (Ki between 1 nM and 0.1 nM))

**Q.** For `Cc1cc(Nc2cc3ncccc3c(N[C@@H]3C[C@H]4CC[C@@H](C3)N4C(=O)C3(C)CCCC3)n2)n[nH]1` [Example 2-10], which “THP-1 IL4 pIC50” value [2] is on record?
**A.** B (key: A represents a pEC50 value ≥7.5 (EC50≤32 nM); B represents a pEC50 value between 6.7 and 7.5 (EC50 between 200 nM and 32 nM); C represents a pEC50 value <6.7 (EC50>200 nM))

**Q.** And the “JAK 1 (pKi)” value (JAK1)?
**A.** B (B represents a pKi value between 9 and 10 (Ki between 1 nM and 0.1 nM))

**Q.** What does the source list for `Cc1cc(Nc2cc3ncccc3c(N[C@@H]3C[C@H]4CCC[C@@H](C3)N4S(=O)(=O)c3cccnc3)n2)n[nH]1` [Example 8, N^7-(5-methyl-1H-pyrazol-3-yl)-N-((1R,3s,5S)-9-(pyridin-3-ylsulfonyl)-9-azabicyclo[3.3.1]nonan-3-yl)-1,6-naphthyridine-5,7-diamine]?
**A.** DAI score as compared with vehicle treated animals [4]: statistically significant decrease; absorption at the portal vein (Fa %) [6]: less than 10%

**Q.** Which “DAI score as compared with vehicle treated animals” value [4] does the source give for `Cc1cc(Nc2cc3nc(CO)ccc3c(N[C@@H]3C[C@H]4CC[C@@H](C3)N4C(=O)OCC(C)C)n2)n[nH]1` [Example 12, Isobutyl (1R,3s,5S)-3-((2-(hydroxymethyl)-7-((5-methyl-1H-pyrazol-3-yl)amino)-1,6-naphthyridin-5-yl)amino)-8-azabicyclo[3.2.1]octane-8-carboxylate] here?
**A.** statistically significant decrease

**Q.** And the “absorption at the portal vein (Fa %)” value [6]?
**A.** less than 10%

**Q.** With `COC(=O)C1(C(=O)N2[C@@H]3CCC[C@H]2C[C@H](Nc2nc(Nc4cc(C)[nH]n4)cc4ncccc24)C3)CC1` [Example 2-21] as the compound, how does the “JAK 1 (pKi)” value (JAK1) read?
**A.** B (B represents a pKi value between 9 and 10 (Ki between 1 nM and 0.1 nM))

**Q.** What does the source list for `Cc1cc(Nc2cc3ncccc3c(N[C@@H]3C[C@H]4CC[C@@H](C3)N4Cc3cccc(O)c3)n2)n[nH]1` [Example 1-19]?
**A.** THP-1 IL4 pIC50 [2, 7]: B (B represents a pEC50 value between 6.7 and 7.5 (EC50 between 200 nM and 32 nM)); Tyk 2 (pKi) (TYK2): C (C represents a pKi value between 7 and 9 (Ki between 100 nM and 1 nM))
